In experiment [1] the target is purified human plasma kallikrein (Homo sapiens (Human), UniProt P03952). Nature of the experiment: Plasma kallikrein enzyme inhibition assay (chromogenic substrate S-2302). The experiment is classed as biochemical. To be noted: measured at 37° C. (*).
Experiment [2] deals with purified human Factor XIa (Homo sapiens (Human), UniProt P03951). Nature of the experiment: Factor XIa enzyme inhibition assay (chromogenic substrate S-2366). To be noted: read-out: Factor XIa Ki; measured at 25° C.

For three compounds, Ki results are on record in US9738655B2, “Tetrahydroisoquinolines containing substituted azoles as factor XIa inhibitors” (BRISTOL-MYERS SQUIBB COMPANY, priority 2013, dated 2017).

Where a name gives a salt, the structure may show the parent alone.

purified human Factor XIa, sequence (P03951 388-625): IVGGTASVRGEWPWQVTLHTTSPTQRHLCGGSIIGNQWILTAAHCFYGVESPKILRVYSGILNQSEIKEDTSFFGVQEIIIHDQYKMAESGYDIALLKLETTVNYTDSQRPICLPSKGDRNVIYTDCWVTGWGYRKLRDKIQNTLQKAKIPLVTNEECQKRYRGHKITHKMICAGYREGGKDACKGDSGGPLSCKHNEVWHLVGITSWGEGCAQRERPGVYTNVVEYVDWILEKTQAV
purified human Factor XIa, sequence (P03951 19-387 partner): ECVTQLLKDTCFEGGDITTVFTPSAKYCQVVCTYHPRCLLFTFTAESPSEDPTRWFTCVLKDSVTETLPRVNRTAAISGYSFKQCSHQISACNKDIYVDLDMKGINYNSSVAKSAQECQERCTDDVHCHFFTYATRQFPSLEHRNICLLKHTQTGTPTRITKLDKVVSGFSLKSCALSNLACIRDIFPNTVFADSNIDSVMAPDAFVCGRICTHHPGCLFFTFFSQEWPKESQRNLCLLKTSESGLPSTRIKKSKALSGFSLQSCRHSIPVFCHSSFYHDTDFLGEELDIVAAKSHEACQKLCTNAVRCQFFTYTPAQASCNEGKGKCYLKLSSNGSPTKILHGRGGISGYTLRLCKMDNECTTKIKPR
purified human plasma kallikrein, sequence (P03952 391-638): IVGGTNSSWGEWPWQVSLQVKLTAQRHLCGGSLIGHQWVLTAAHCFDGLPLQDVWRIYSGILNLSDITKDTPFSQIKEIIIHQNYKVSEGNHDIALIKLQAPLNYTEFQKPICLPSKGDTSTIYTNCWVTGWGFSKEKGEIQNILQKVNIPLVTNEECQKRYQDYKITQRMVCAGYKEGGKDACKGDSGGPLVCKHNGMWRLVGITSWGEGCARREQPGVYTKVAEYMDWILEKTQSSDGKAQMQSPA
purified human plasma kallikrein, sequence (P03952 20-390 partner): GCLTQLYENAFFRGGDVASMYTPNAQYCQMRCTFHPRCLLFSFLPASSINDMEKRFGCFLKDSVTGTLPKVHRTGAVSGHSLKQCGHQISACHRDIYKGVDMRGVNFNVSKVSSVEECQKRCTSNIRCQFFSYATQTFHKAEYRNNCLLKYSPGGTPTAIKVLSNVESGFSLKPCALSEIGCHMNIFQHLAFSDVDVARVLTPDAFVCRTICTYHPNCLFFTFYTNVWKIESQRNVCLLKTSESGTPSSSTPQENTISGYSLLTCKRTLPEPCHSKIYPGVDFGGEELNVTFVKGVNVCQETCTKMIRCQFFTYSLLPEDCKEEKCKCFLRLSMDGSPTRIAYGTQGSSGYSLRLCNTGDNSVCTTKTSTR

On to `COC1CCN(c2cccc3c2CCN(C(=O)c2cn(-c4cccc(Cl)c4F)nn2)C3C(=O)Nc2ccc(C(N)=O)cc2)CC1` (stereo not drawn) [Example 335, N-(4-Carbamoylphenyl)-2-(1-(3-chloro-2-fluorophenyl)-1H-1,2,3-triazole-4-carbonyl)-5-(4-methoxypiperidin-1-yl)-1,2,3,4-tetrahydroisoquinoline-1-carboxamide, TFA salt], for which the Ki (as a rule, a dissociation constant, usually derived from enzyme kinetics or from competition with a known ligand) in experiment [1] is 0.0969 µM; in experiment [2], less than 0.005 µM.
Taken in the same sequence, the figures for `CC(C)c1nnc2n1CCN(c1cccc3c1CCN(C(=O)[C@H]1CC(c4cccc(Cl)c4F)=NO1)[C@@H]3C(=O)Nc1ccc(C(=O)O)cc1)C2` [Example 336, 4-((S)-2-((R)-3-(3-Chloro-2-fluorophenyl)-4,5-dihydroisoxazole-5-carbonyl)-5-(3-isopropyl-5,6-dihydro-[1,2,4]triazolo[4,3-a]pyrazin-7(8H)-yl)-1,2,3,4-tetrahydroisoquinoline-1-carboxamido)benzoic acid, TFA salt] were 0.0014 µM and less than 0.005 µM.
For the compound `CC(C)c1nnc2n1CCN(c1cccc3c1CCN(C(=O)[C@H]1CC(c4cccc(Cl)c4F)=NO1)[C@H]3C(=O)Nc1ccc(C(=O)O)cc1)C2` [Example 337, 4-((R)-2-((R)-3-(3-Chloro-2-fluorophenyl)-4,5-dihydroisoxazole-5-carbonyl)-5-(3-isopropyl-5,6-dihydro-[1,2,4]triazolo[4,3-a]pyrazin-7(8H)-yl)-1,2,3,4-tetrahydroisoquinoline-1-carboxamido)benzoic acid, TFA salt], the Ki in experiment [1] was 0.0681 µM; in experiment [2], 0.0279 µM.
